Data as given in patent publication US10092566B2, “Composition for controlling a gut immunity and use thereof” (SEOUL NATIONAL UNIVERSITY R&DB FOUNDATION, priority 2013, dated 2018).

Assays:
Drosophila S2 cells = assay: Measurement of intracellular calcium (fura-2); assay type: cell-based; conditions: uracil 20 nM
Procedure: Intracellular Ca^2+ was measured by the method disclosed in the previous research (Rosker et al., J Biol Chem 279, pp. 13696-13704, 2004). Briefly speaking, Drosophila S2 cells (approx. 10^8 cells) were loaded with pH 7.4 buffer containing 10 mM glucose, 140 mM NaCl, 1 mM CaCl2, 5 mM KCl, 1 mM MgCl2, and 10 mM HEPES and the solution was treated with […] fura-2-acetoxymethyl ester for 40 minutes at room temperature. The cells were washed twice with pH 7.4 Ca^2+ chelating buffer containing 10 mM glucose, 140 mM NaCl, 1 mM EDTA, 1 mM EGTA, 5 mM KCl, 1 mM MgCl2, and 10 mM HEPES, and were re-suspended in the same buffer. Then, 20 nM of uracil was added to the cells. Fluorescence was continuously recorded at an interval of 0.5 seconds (excitation at 340 nm and 380 nm; emission at 510 nm) by fluorescent spectrophotometer (Shimadzu, Tokyo, Japan) at room temperature.

DUOX = DUOX expression by qPCR; assay type: in vivo, Drosophila; conditions: uracil 20 nM
Procedure: Fluorescent RT-PCR was conducted to quantify gene expression and double-stranded DNA dye and SYBR green (Perkin Elmer, Waltham, Mass., USA) were used. To detect target gene trascriptomes, Cecropin (Sense, 5′-ATGAACTTCTACAACATCTTCG-3′ (SEQ ID NO: 5); Antisense, 5′-GGCAGTTGCGGCGACATTGGCG-3′ (SEQ ID NO: 6)), Diptericin (Sense, 5′-GGCTTATCCGATGCCCGACG-3′ (SEQ ID NO: 7); Antisense, 5′-TCTGTAGGTGTAGGTGCTTCCC-3′ (SEQ ID NO: 8)), and DUOX (Sense, 5′-GCTGCACGCCAACCACAAGAGACT-3′ (SEQ ID NO: 9); Antisense, 5′-CACGCGCAGCAGGATGTAAGGTTT-3′ (SEQ ID NO: 10)) were used, and as a control group, Rp49 (Sense, 5′-AGATCGTGAAGAAGCGCACCAAG-3′ (SEQ ID NO: 11); Antisense, 5′-CACCAGGAACTTCTTGAATCCGG-3′ (SEQ ID NO: 12)) was used. SYBR green analysis was conducted by an ABI PRISM 7700 system (PE Applied Biosystems, Foster City, Calif., USA) according to the manufacturer's instructions. All of the samples were repeated three times and analyzed, and a detected amount of mRNA was normalized with mRNA in the control group. Normalized data was used to quantify the relative amount of mRNA according to cycling threshold analysis. Targeted gene expression was expressed as the relative amount of expression.

Ce-DUOX1 = assay: ROS (DUOX-dependent H2O2) measurement in C. elegans; assay type: in vivo; conditions: uracil-containing media, 2 hours
Description: C. elegans were raised and maintained as disclosed in the previous research (Chavez et al., Infect Immun 77, pp. 4983-4989, 2009). As disclosed in the previous research, L1 nematodes were fed with bacteria containing Ce-DUOX1-RNAi vectors throughout the step L4 to introduce Ce-DUOX1-RNAi (Chavez et al., Infect Immun 77, pp. 4983-4989, 2009). Standard feeding system RNAi process using Ce-DUOX1-RNAi may cause a developmental disability which indicates a serious level of mortality. As disclosed in the previous research, to give a partial knock-down effect, Ce-DUOX1-RNAi bacteria were mixed with bacteria containing control RNAi at a ratio of 1:70. In the early adult stage, nematodes were obtained and washed with M9 minimal media. Nematodes (about 200 to 300 individuals) were placed in a 96-well plate comprising uracil-containing media ([…]) at 20° C. for 2 hours.
DUOX-dependent H2O2, as basically disclosed in the previous research (Chavez et al., Infect Immun 77, pp. 4983-4989, 2009), was measured at room temperature for 2 hours following addition of […] of Amplex UltraRed solution (Invitrogen) and […] of reacting buffer including 0.2 units/mL of horseradish peroxidase (Sigma). Fluorescence of each sample was measured by fluorescent microplate readers at 530 nm of excitation wavelength and 590 nm of emission wavelength. […]

gut cells = conditions: in vivo
Procedure: To measure cell apoptosis in gut cells caused by a long-term exposure to uracil, genetically different germ-free adult Drosophila (5 to 6 days old) were maintained on the standard corn meal agar media with a supplemental 1 nM of uracil for 20 days.
Midguts of female Drosophila (20 days old) collected above were used for the analysis of cell apoptosis. Midguts were dissected in PBS, and cell apoptosis analysis was conducted by terminal deoxynucleotidyl transferase (TdT)-mediated dUDP nick end labeling method as disclosed in the previous research (Ryu et al., Science 319, pp. 777-782, 2008).
The cell apoptotic index was indicated by dividing the number of apoptotic cells with respect to the total number of cells and multiplying the value by 100.

O=c1cc[nH]c(=O)[nH]1 [uracil]
Ca2+ mobilization (Drosophila S2 cells): Ca^2+ mobilization | DUOX gene induction (DUOX): DUOX gene induction | DUOX-dependent ROS generation in C. elegans (Ce-DUOX1): able to activate DUOX-dependent ROS generation | gut cell apoptosis after long-term ingestion of uracil (gut cells): Extensive apoptosis in gut cells
